Measured values: US20080026996A1, “Selective Vpac2 Receptor Reptide Agonists” (ELI LILLY AND COMPANY, priority 2004, published 2008)
Where no end group is shown, it is not given here. [ ]: non-standard residue; d: D form. The star is where a group is joined. hArg = N=C(N)NCCCC[C@H](N)C(=O)O; Nle = CCCC[C@H](N)C(=O)O; Hexanoyl = CCCCCC(=O)*; Aib = CC(C)(N)C(=O)O

Columns and labels:
human PAC1 [1] = target: T1, human PAC1 (Homo sapiens, UniProt P41586); assay: DiscoveRx cAMP in vitro potency, CHO-PO cells transiently transfected with human PAC1 receptor; assay type: cell-based; parameters: expressed in transfected cells; host or cells: CHO-PO, transient (Lipofectamine); conditions: cAMP generation; mean of two independent runs; read-out: Human PAC1 Receptor: DiscoveRx EC50
T1 sequence (P41586 21-468): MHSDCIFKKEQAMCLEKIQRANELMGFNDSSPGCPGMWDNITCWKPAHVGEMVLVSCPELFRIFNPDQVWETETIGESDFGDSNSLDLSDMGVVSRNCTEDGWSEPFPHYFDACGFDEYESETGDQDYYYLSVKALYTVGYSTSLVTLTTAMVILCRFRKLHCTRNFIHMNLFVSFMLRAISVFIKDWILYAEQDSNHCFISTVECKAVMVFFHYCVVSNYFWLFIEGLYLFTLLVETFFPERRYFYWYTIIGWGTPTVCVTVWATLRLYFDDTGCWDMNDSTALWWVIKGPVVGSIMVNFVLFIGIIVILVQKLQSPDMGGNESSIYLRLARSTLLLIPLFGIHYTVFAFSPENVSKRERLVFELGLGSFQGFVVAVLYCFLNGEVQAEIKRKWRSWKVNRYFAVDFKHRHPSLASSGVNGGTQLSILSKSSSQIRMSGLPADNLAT
Experimental: Also, the cells are washed twice. The cells are incubated in assay buffer plus IBMX for 15 minutes at room temperature. […] The stimuli are present for 30 minutes. Then, the assay buffer is gently removed. […] At day 3, the assay described above for the VPAC2 receptor cell line is performed.

human VPAC2 [2] = target: T2, human VPAC2 (Homo sapiens, UniProt P41587); assay: Alpha screen cAMP in vitro potency, human VPAC2 receptor; assay type: cell-based; conditions: cAMP generation; single result from two analyses performed in a single run; read-out: Human VPAC2 Receptor: Alpha Screen EC50
T2 construct: expressed in transfected cells
T2 sequence (P41587 24-438): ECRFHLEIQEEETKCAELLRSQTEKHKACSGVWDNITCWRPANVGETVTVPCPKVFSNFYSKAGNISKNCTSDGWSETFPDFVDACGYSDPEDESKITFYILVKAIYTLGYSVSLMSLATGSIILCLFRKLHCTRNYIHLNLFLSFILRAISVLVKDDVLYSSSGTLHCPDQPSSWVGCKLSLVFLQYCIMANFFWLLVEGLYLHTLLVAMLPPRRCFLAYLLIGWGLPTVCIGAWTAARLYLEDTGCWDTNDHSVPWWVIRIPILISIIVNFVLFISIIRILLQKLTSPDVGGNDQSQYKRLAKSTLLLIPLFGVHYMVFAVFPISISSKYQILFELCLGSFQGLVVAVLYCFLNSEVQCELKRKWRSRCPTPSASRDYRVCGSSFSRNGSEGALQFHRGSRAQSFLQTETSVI
How it was run: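 Dissociated cells, 50,000 per point in stimulation buffer, were incubated with stimuli and AlphaScreen acceptor beads for 60 min.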

human VPAC2 [3] = target: T2, human VPAC2; assay: Filter binding assay, membranes of stable VPAC2 cell line, 125I-labeled VIP tracer (Table 2); conditions: read-out: Human VPAC2 Receptor Binding
How it was run: (§1)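 Scintillation counting of filter-retained radioligand gave the read-out. Compounds competed with the labelled tracer (about 40000 cpm) for 2.5 μg membranes during 1 hour of shaking in HEPES pH 7.4 buffer containing 0.5% BSA.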

[4] = Rat serum stability studies (remaining active peptide by DiscoveRx cAMP on CHO-VPAC2 cells); assay type: in vitro ADME
How it was run: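 Rat serum, 18 h: +aprotinin aliquot at 4° C, no-aprotinin aliquot at 37° C. Then 30 min RT step, supernatant removed, 1 h shaking at 300 rpm. DiscoveRx cAMP kit on CHO-VPAC2; EC50 from cAMP data vs standards.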

human VPAC1 = target: T3, human VPAC1 (Homo sapiens, UniProt P32241); assay: Filter binding assay, membranes of cells transiently transfected with human VPAC1, 125I-labeled VIP tracer (Table 2); parameters: expressed in transfected cells; conditions: read-out: Human VPAC1 Receptor Binding
T3 sequence (P32241 31-457): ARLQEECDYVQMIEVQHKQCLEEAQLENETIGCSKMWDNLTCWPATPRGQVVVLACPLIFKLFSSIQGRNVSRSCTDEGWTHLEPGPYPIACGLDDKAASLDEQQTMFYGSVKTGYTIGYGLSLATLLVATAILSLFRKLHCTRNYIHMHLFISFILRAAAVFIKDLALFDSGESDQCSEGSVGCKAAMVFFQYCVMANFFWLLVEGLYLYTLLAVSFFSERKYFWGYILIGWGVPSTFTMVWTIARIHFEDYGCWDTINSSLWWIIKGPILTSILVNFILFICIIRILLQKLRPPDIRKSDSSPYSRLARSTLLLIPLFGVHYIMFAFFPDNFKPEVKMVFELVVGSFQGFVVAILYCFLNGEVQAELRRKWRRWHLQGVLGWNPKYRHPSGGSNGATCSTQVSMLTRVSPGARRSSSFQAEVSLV
How it was run: as §1

human PAC1 [5] = target: T1, human PAC1; assay: Filter binding assay, membranes of cells transiently transfected with human PAC1, 125I-labeled PACAP-27 tracer (Table 2); parameters: expressed in transfected cells; conditions: read-out: Human PAC1 Receptor Binding
How it was run: as §1

rat VPAC2 receptor = target: T4, rat VPAC2 receptor (Rattus norvegicus, UniProt P35000); assay: DiscoveRx in vitro potency, CHO-PO cells transiently transfected with rat VPAC 2 receptor DNA; assay type: cell-based; parameters: expressed in transfected cells; host or cells: CHO-PO, transient
T4 sequence (P35000 23-437): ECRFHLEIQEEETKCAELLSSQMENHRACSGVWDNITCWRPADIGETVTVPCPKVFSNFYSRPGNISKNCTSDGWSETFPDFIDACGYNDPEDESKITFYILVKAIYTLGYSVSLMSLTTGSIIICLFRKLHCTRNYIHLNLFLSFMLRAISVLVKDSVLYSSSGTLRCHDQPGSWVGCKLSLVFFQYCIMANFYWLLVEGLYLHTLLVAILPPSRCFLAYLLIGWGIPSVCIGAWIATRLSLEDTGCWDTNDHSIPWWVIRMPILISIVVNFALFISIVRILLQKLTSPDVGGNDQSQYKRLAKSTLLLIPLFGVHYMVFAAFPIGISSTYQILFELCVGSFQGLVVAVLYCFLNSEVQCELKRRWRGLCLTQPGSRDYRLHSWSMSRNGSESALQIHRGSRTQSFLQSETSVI
Experimental: Also, the cells are washed twice. […] The stimuli are present for 30 minutes. Then, the assay buffer is gently removed.

Compound	EC50 (human PAC1 [1]) [nM]	EC50 (human VPAC2 [2]) [nM]	IC50 (human VPAC2 [3]) [nM]	Rat Serum Stability (estimated purity in % after 18 hours) [4] [%]	IC50 (human VPAC1) [nM]	IC50 (human PAC1 [5]) [nM]	EC50 (rat VPAC2 receptor) [nM]
HLDAVFTDNYTRLRKQVAAKKYLQSIKNKRYGGPSSGAPPPS [Agonist P46]	> 1000						
Hexanoyl-HSDAVFTDNYTRLK[Aib]QVAA[Aib]KYLQSIKNKRYGGPSSGAPPPS [Agonist P318]		0.32	0.63	29.95	> 3000	> 25000	0.09
Hexanoyl-HSDAVFTDNYTRLR[Aib]QVAAKKYLQSIKNKRYGGPSSGAPPPS [Agonist P168]		0.27	0.21	10.47	234	538	0.05
HSDAWFTDNYTRLRKQVAAKKYLQSIKNKRYGGPSSGAPPPS [Agonist P69]	104						
Hexanoyl-HSDAVFTDNYTRLR[Aib]QLAA[Aib]KYLQSIKNKRYGGPSSGAPPPS [Agonist P291]		0.36	0.45	28.09	> 3000	> 25000	0.06
HGDAVFTDNYTRLRKQVAAKKYLQSIKNKRYGGPSSGAPPPS [Agonist P43]	104						
Hexanoyl-HSDAVFTDNYTRLRKQVAAK[Aib]YLQSIKNKRYGGPSSGAPPPS [Agonist P170]		0.18	0.34	0.31	275	200	0.15
Hexanoyl-HSDAVFTDNYTRLRQQVAAKKYLQSIKNKRYGGPSSGAPPPS [Agonist P177]		0.21	0.7	0.49	128	276	0.1
H-HSDAVFTDNYTRLRKQVAAKKYLQSIKNKRYC [Agonist P37]	35.6						
Hexanoyl-HSDAVFTDNYTRL[hArg]KQVAAKKYLQSIKNKRYGGPSSGAPPPS [Agonist P305]		0.17	0.17	0.23	268	171	0.04
H-HSDAVFTDNYTRLRKQVAAKKYLQSIQNKRYGGPSSGAPPPS [Agonist P74]	145						
Hexanoyl-HSDAVFTDNYTRLR[Aib]Q[Nle]AA[Aib]KYLQSIKNKRYGGPSSGAPPPS [Agonist P325]		0.24	0.4	13.13	> 3000	> 25000	0.04
HSDFVFTDNYTRLRKQVAAKKYLQSIKNKRYGGPSSGAPPPS [Agonist P52]	> 1000						
CCCCCC(=O)N[C@@H](Cc1c[nH]cn1)C(=O)N[C@@H](CO)C(=O)N[C@@H](CC(=O)O)C(=O)N[C@@H](C)C(=O)N[C@H](C(=O)N[C@@H](Cc1ccccc1)C(=O)N[C@H](C(=O)N[C@@H](CC(=O)O)C(=O)N[C@@H](CC(N)=O)C(=O)N[C@@H](Cc1ccc(O)cc1)C(=O)N[C@H](C(=O)N[C@@H](CCCNC(=N)N)C(=O)N[C@@H](CC(C)C)C(=O)N[C@@H](CCCNC(=N)N)C(=O)N[C@@H](CCCCN)C(=O)N[C@@H](CCC(N)=O)C(=O)N[C@H](C(=O)N[C@@H](C)C(=O)N[C@@H](C)C(=O)NC(C)(C)C(=O)N[C@@H](CCCCN)C(=O)N[C@@H](Cc1ccc(O)cc1)C(=O)N[C@@H](CC(C)C)C(=O)N[C@@H](CCC(N)=O)C(=O)N[C@@H](CO)C(=O)N[C@H](C(=O)N[C@@H](CCCCN)C(=O)N[C@@H](CC(N)=O)C(=O)N[C@@H](CCCCN)C(=O)N[C@@H](CCCNC(=N)N)C(=O)N[C@@H](Cc1ccc(O)cc1)C(=O)NCC(=O)NCC(=O)N1CCC[C@H]1C(=O)N[C@@H](CO)C(=O)N[C@@H](CO)C(=O)NCC(=O)N[C@@H](C)C(=O)N1CCC[C@H]1C(=O)N1CCC[C@H]1C(=O)N1CCC[C@H]1C(=O)N[C@@H](CO)C(=O)O)[C@@H](C)CC)C(C)C)[C@@H](C)O)[C@@H](C)O)C(C)C [Agonist P169]		0.14	0.26	0.40	240	482	0.07
